Experimental data from publication PMC10924921, “Mi-2β promotes immune evasion in melanoma by activating EZH2 methylation” (Nature Communications, 2024).

Legend:
Assay in all cases: biochemical
Parameters in all cases: KINOMEscan active-site competition binding panel (468 kinase assays), per cent of control at 1000 nM
Details in all cases: KINOMEscan per cent of control (binding competition); read-out: Percent Control
[1] = molecular target: T1, ABL1(F317L)-phosphorylated (Homo sapiens, UniProt P00519, F317L)
T1 construct: phosphorylated
Excerpt: (§1) Figure S7 / Percent Control

AXL = AXL (Homo sapiens, UniProt P30530)
Excerpt: as §1

CAMK2A = CAMK2A (Homo sapiens, UniProt Q9UQM7)
Excerpt: as §1

CAMKK1 = CAMKK1 (Homo sapiens, UniProt Q8N5S9)
Excerpt: as §1

CDK2 = CDK2 (Homo sapiens, UniProt P24941)
Excerpt: as §1

CDKL2 = CDKL2 (Homo sapiens, UniProt Q92772)
Excerpt: as §1

CSNK1G2 = CSNK1G2 (Homo sapiens, UniProt P78368)
Excerpt: as §1

ICK = molecular target: T2, ICK (Homo sapiens, UniProt Q9UPZ9)
T2 construct: gene CILK1
Excerpt: as §1

[2] = molecular target: T3, JAK1(JH2domain-pseudokinase) (Homo sapiens, UniProt P23458)
T3 construct: JH2domain-pseudokinase
Excerpt: as §1

MAP3K1 = MAP3K1 (Homo sapiens, UniProt Q13233)
Excerpt: as §1

MEK4 = molecular target: T4, MEK4 (Homo sapiens, UniProt P45985)
T4 construct: gene MAP2K4
Excerpt: as §1

MLCK = molecular target: T5, MLCK (Homo sapiens, UniProt Q32MK0)
T5 construct: gene MYLK3
Excerpt: as §1

MST2 = molecular target: T6, MST2 (Homo sapiens, UniProt Q13188)
T6 construct: gene STK3
Excerpt: as §1

NEK9 = NEK9 (Homo sapiens, UniProt Q8TD19)
Excerpt: as §1

PHKG2 = PHKG2 (Homo sapiens, UniProt P15735)
Excerpt: as §1

PIK3C2G = PIK3C2G (Homo sapiens, UniProt O75747)
Excerpt: as §1

PIM2 = PIM2 (Homo sapiens, UniProt Q9P1W9)
Excerpt: as §1

PKMYT1 = PKMYT1 (Homo sapiens, UniProt Q99640)
Excerpt: as §1

PLK1 = PLK1 (Homo sapiens, UniProt P53350)
Excerpt: as §1

PRKD2 = PRKD2 (Homo sapiens, UniProt Q9BZL6)
Excerpt: as §1

[3] = molecular target: T7, RSK3(Kin.Dom.1-N-terminal) (Homo sapiens, UniProt Q15349)
T7 construct: gene RPS6KA2; Kin.Dom.1-N-terminal
Excerpt: as §1

SYK = SYK (Homo sapiens, UniProt P43405)
Excerpt: as §1

ULK2 = ULK2 (Homo sapiens, UniProt Q8IYT8)
Excerpt: as §1

YANK3 = molecular target: T8, YANK3 (Homo sapiens, UniProt Q86UX6)
T8 construct: gene STK32C
Excerpt: as §1

ZAP70 = ZAP70 (Homo sapiens, UniProt P43403)
Excerpt: as §1

CSNK1G2, sequence (P78368 whole entry): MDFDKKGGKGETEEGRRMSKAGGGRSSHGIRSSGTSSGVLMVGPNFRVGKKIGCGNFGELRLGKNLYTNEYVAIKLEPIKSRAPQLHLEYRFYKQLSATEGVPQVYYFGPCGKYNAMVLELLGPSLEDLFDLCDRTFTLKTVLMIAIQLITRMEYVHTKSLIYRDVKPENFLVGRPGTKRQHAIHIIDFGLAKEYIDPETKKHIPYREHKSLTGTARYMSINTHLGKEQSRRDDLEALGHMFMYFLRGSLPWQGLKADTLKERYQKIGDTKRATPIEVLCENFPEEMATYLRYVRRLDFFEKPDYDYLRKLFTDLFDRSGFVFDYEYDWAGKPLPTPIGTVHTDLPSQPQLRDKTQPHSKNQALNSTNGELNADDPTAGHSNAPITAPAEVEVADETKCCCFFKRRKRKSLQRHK
CDKL2, sequence (Q92772 whole entry): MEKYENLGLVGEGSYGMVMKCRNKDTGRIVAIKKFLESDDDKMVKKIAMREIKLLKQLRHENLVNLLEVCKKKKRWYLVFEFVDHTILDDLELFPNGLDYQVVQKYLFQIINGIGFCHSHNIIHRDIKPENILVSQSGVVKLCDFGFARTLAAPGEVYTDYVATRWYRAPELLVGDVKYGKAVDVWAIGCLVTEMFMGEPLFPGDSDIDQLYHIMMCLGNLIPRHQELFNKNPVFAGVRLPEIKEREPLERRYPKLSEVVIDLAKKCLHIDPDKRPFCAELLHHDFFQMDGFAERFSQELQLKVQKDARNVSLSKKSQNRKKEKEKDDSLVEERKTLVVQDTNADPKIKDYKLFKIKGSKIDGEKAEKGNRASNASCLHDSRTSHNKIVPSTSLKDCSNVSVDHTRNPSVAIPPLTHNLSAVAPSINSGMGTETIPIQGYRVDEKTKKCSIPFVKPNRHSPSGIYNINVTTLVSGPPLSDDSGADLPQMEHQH
AXL, sequence (P30530 whole entry): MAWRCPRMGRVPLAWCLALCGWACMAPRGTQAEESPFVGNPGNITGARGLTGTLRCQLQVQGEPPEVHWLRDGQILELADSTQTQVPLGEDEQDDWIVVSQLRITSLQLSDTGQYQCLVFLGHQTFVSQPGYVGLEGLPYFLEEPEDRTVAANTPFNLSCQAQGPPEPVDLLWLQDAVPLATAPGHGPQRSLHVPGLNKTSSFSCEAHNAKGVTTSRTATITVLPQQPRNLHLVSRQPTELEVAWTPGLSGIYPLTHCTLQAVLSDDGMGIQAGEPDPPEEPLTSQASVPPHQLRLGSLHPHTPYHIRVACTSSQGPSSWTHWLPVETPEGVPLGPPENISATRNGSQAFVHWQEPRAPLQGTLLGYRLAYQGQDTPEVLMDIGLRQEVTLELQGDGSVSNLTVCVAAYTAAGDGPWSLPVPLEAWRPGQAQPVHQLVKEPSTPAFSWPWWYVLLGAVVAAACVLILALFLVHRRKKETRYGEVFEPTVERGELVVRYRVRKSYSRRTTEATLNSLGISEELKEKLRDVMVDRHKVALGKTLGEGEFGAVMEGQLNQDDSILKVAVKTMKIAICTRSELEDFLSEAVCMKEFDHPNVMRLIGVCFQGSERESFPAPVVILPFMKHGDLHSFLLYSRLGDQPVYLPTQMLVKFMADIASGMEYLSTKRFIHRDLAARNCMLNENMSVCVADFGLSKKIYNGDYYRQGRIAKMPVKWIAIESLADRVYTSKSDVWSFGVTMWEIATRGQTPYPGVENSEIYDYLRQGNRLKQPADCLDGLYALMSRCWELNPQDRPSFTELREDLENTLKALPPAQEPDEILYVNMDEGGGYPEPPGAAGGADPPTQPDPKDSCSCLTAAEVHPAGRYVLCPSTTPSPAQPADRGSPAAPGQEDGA
T6 sequence (Q13188 whole entry): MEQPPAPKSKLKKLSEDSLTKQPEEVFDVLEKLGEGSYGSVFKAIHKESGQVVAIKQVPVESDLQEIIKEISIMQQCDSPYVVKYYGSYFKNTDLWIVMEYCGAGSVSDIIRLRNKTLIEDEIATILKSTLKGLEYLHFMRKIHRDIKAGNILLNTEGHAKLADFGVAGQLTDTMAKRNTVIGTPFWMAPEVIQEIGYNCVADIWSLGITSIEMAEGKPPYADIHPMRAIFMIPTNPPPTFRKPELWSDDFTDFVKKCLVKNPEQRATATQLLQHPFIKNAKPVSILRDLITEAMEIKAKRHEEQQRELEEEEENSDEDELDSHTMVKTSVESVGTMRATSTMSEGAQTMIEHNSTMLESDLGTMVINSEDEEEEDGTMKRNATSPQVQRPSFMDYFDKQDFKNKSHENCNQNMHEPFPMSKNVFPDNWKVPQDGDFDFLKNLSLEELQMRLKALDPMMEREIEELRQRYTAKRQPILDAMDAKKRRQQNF
PKMYT1, sequence (Q99640 whole entry): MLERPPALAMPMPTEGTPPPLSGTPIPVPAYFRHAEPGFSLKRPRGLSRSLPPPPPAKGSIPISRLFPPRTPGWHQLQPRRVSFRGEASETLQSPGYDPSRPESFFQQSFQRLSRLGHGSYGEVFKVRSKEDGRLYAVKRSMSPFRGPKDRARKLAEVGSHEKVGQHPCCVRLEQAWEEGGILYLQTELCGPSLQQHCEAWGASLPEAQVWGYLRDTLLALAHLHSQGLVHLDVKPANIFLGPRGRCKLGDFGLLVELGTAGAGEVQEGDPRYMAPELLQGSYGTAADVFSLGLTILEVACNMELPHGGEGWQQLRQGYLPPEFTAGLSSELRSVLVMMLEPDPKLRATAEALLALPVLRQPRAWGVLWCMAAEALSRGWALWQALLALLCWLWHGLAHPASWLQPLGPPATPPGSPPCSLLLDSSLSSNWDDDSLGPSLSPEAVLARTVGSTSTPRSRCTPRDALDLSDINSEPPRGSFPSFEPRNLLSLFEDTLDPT
ZAP70, sequence (P43403 whole entry): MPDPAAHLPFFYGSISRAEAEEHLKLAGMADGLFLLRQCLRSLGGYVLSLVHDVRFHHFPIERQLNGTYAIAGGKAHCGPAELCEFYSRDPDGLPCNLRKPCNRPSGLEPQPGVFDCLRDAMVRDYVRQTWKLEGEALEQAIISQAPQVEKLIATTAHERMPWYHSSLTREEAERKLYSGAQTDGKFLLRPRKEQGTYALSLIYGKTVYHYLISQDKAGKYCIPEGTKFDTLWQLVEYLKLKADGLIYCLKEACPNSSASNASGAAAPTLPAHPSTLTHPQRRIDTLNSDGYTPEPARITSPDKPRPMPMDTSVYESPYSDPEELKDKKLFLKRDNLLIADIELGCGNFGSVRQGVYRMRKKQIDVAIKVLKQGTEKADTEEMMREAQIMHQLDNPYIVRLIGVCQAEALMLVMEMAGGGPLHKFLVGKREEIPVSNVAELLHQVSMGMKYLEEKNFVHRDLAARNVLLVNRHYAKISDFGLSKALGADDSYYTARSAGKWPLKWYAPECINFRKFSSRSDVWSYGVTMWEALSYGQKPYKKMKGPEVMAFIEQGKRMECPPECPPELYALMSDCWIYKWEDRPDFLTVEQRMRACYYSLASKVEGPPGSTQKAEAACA
T8 sequence (Q86UX6 whole entry): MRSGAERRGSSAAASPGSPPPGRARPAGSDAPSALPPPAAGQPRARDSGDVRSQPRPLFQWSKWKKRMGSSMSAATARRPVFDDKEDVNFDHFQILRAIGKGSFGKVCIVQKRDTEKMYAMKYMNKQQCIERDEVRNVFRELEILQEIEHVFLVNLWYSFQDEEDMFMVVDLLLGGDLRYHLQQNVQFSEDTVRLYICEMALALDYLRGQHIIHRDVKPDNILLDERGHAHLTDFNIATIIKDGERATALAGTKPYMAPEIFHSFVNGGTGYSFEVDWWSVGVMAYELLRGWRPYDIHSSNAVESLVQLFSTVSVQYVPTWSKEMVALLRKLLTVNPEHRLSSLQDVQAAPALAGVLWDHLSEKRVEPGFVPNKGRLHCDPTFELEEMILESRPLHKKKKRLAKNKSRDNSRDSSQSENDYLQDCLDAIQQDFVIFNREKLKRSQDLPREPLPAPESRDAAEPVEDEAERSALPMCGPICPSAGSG
T4 sequence (P45985 whole entry): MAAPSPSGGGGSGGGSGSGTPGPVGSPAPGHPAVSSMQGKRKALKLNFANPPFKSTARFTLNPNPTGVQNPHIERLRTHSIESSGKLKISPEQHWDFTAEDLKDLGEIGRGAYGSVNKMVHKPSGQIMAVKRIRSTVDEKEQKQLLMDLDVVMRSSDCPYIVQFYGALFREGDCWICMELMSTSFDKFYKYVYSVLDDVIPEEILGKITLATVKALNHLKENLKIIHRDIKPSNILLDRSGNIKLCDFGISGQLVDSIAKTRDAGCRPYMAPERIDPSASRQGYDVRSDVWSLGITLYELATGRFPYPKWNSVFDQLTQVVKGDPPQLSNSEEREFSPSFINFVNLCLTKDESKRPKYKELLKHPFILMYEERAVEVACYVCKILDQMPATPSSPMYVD
CAMKK1, sequence (Q8N5S9 whole entry): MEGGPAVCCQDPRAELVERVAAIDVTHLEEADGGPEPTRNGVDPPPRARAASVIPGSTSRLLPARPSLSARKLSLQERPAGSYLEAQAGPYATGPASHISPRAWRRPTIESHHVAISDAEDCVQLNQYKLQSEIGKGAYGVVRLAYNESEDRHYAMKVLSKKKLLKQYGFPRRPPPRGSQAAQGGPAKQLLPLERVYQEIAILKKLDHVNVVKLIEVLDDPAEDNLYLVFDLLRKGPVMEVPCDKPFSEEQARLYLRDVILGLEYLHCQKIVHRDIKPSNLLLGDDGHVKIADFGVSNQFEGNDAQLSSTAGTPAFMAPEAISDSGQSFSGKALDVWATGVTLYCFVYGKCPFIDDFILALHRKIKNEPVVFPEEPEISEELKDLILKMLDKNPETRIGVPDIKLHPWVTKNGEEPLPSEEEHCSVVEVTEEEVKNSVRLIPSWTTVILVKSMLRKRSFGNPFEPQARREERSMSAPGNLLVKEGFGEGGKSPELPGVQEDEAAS

Compound: Cn1c(=O)[nH]c2ccc(-c3cccc(C(=O)NC4CCn5ccnc5C4)c3)cc21 (stereo not shown) [Z36-MP5]
- remaining binding at 1 µM [1]: 83%
- remaining binding at 1 µM (AXL): 94%
- remaining binding at 1 µM (CAMK2A): 87%
- remaining binding at 1 µM (CAMKK1): 39%
- remaining binding at 1 µM (CDK2): 91%
- remaining binding at 1 µM (CDKL2): 68%
- remaining binding at 1 µM (CSNK1G2): 86%
- remaining binding at 1 µM (ICK): 100%
- remaining binding at 1 µM [2]: 51%
- remaining binding at 1 µM (MAP3K1): 54%
- remaining binding at 1 µM (MEK4): 84%
- remaining binding at 1 µM (MLCK): 91%
- remaining binding at 1 µM (MST2): 93%
- remaining binding at 1 µM (NEK9): 83%
- remaining binding at 1 µM (PHKG2): 83%
- remaining binding at 1 µM (PIK3C2G): 100%
- remaining binding at 1 µM (PIM2): 91%
- remaining binding at 1 µM (PKMYT1): 93%
- remaining binding at 1 µM (PLK1): 70%
- remaining binding at 1 µM (PRKD2): 64%
- remaining binding at 1 µM [3]: 93%
- remaining binding at 1 µM (SYK): 57%
- remaining binding at 1 µM (ULK2): 59%
- remaining binding at 1 µM (YANK3): 94%
- remaining binding at 1 µM (ZAP70): 91%
